Laboratory results published in ChEMBL document CHEMBL1126009, “Synthesis and biological activities of fatty acid conjugates of a cyclic lactam alpha-melanotropin” (1992).

How the values were obtained:
lizard [1] = test: […] activity in lizard skin (10e-9 M) bioassay, compared to the half-maximal effective dose of alpha-MSH (1.0); response is prolonged (+).; format: functional
S91 [2] = test: […] potency was measured as the minimal effective dose required to elicit the response relative to alpha-MSH(1.0) by using melanoma tyrosinase bioassay; response is prolonged (+).range=10-100; format: functional, Mus musculus
S91 [3] = test: […] potency was measured as the minimal effective dose required to elicit the response relative to alpha-MSH(1.0) by using melanoma tyrosinase bioassay; response is somewhat prolonged (+/-).; format: functional, Mus musculus
lizard [4] = test: […] activity in lizard skin (10e-9 M) bioassay, compared to the half-maximal effective dose of alpha-MSH (1.0); response is not prolonged (-).; format: functional
S91 [5] = test: […] potency was measured as the minimal effective dose required to elicit the response relative to alpha-MSH(1.0) by using melanoma tyrosinase bioassay; response is prolonged (+).range =10-100; format: functional, Mus musculus

Work on `CCCCCC(=O)N[C@H]1CC(=O)NCCCC[C@@H](C(N)=O)NC(=O)[C@H](Cc2c[nH]c3ccccc23)NC(=O)[C@@H](CCCN=C(N)N)NC(=O)[C@H](Cc2ccccc2)NC(=O)[C@@H](Cc2c[nH]cn2)NC1=O` yielded a Melanotropic activity (lizard [1]) of 1.
Work on `CCCCCCCCCCCCCCCC(=O)N[C@H]1CC(=O)NCCCC[C@@H](C(N)=O)NC(=O)[C@H](Cc2c[nH]c3ccccc23)NC(=O)[C@H](CCCN=C(N)N)NC(=O)[C@@H](Cc2ccccc2)NC(=O)[C@H](Cc2c[nH]cn2)NC1=O` yielded a Melanotropic potency (S91 [2]) of 100.
Work on `CCCCCCCCCCCCCC(=O)NC1CC(=O)NCCCC[C@@H](C(N)=O)NC(=O)[C@H](Cc2c[nH]c3ccccc23)NC(=O)[C@@H](CCCN=C(N)N)NC(=O)[C@H](Cc2ccccc2)NC(=O)[C@@H](Cc2c[nH]cn2)NC1=O` (some centres not stated) yielded a Melanotropic activity (lizard [1]) of 0.01.
`CCCCCCCCCCCCCCCC(=O)NC1CC(=O)NCCCC[C@@H](C(N)=O)NC(=O)[C@H](Cc2c[nH]c3ccccc23)NC(=O)[C@@H](CCCN=C(N)N)NC(=O)[C@H](Cc2ccccc2)NC(=O)[C@@H](Cc2c[nH]cn2)NC1=O` (some centres not stated) was tested, and the Melanotropic activity (lizard [1]) was 0.01.
`NC(=O)[C@@H]1CCCCNC(=O)C[C@H](N)C(=O)N[C@@H](Cc2c[nH]cn2)C(=O)N[C@H](Cc2ccccc2)C(=O)N[C@@H](CCCN=C(N)N)C(=O)N[C@@H](Cc2c[nH]c3ccccc23)C(=O)N1` was tested, and the Melanotropic potency (S91 [3]) was 1.
With `CCCCCCCCCC(=O)N[C@H]1CC(=O)NCCCC[C@@H](C(N)=O)NC(=O)[C@H](Cc2c[nH]c3ccccc23)NC(=O)[C@H](CCCN=C(N)N)NC(=O)[C@@H](Cc2ccccc2)NC(=O)[C@H](Cc2c[nH]cn2)NC1=O` the Melanotropic potency (S91 [2]) was 100.
`CC(=O)N[C@H]1CC(=O)NCCCC[C@@H](C(N)=O)NC(=O)[C@H](Cc2c[nH]c3ccccc23)NC(=O)[C@@H](CCCN=C(N)N)NC(=O)[C@@H](Cc2ccccc2)NC(=O)[C@@H](Cc2c[nH]cn2)NC1=O` gave a Melanotropic activity (lizard [4]) of 1.
`NC(=O)[C@@H]1CCCCNC(=O)C[C@H](N)C(=O)N[C@H](Cc2c[nH]cn2)C(=O)N[C@H](Cc2ccccc2)C(=O)N[C@H](CCCN=C(N)N)C(=O)N[C@@H](Cc2c[nH]c3ccccc23)C(=O)N1` was tested, and the Melanotropic activity (lizard [4]) was 0.2.
In the case of `CC(=O)N[C@H]1CC(=O)NCCCC[C@@H](C(N)=O)NC(=O)[C@H](Cc2c[nH]c3ccccc23)NC(=O)[C@H](CCCN=C(N)N)NC(=O)[C@@H](Cc2ccccc2)NC(=O)[C@H](Cc2c[nH]cn2)NC1=O`, the Melanotropic potency (S91 [3]) is reported as 1.
`CCCCCCCCCC(=O)NC1CC(=O)NCCCC[C@@H](C(N)=O)NC(=O)[C@H](Cc2c[nH]c3ccccc23)NC(=O)[C@@H](CCCN=C(N)N)NC(=O)[C@H](Cc2ccccc2)NC(=O)[C@@H](Cc2c[nH]cn2)NC1=O` (some centres not stated) gave a Melanotropic activity (lizard [1]) of 1.
Work on `CCCCCC(=O)N[C@H]1CC(=O)NCCCC[C@@H](C(N)=O)NC(=O)[C@H](Cc2c[nH]c3ccccc23)NC(=O)[C@H](CCCN=C(N)N)NC(=O)[C@@H](Cc2ccccc2)NC(=O)[C@H](Cc2c[nH]cn2)NC1=O` yielded a Melanotropic potency (S91 [2]) of 100.
In the case of `CCCCCCCCCCCCCC(=O)N[C@H]1CC(=O)NCCCC[C@@H](C(N)=O)NC(=O)[C@H](Cc2c[nH]c3ccccc23)NC(=O)[C@H](CCCN=C(N)N)NC(=O)[C@@H](Cc2ccccc2)NC(=O)[C@H](Cc2c[nH]cn2)NC1=O`, the Melanotropic potency (S91 [5]) is reported as 100.
